US12516058B2, “Small-molecule compounds for controlling endosomal toll-like receptors and therapeutic agent for autoimmune diseases using same” (priority 2020, dated 2026)
“Also recorded” adds a separate entry of the source.

What follows are compounds tested against T1, TLR9 (Mus musculus, UniProt Q9EQU3) (assay: TNF-α secretion ELISA after TLR9 agonist ODN2395 in RAW 264.7 cells). Settings: SK01 and structural derivatives, inhibitor 1 h, then ODN2395 4 h.
T1 construct: endogenous in cells; host or cells: RAW 264.7
T1 sequence (Q9EQU3 26-1032): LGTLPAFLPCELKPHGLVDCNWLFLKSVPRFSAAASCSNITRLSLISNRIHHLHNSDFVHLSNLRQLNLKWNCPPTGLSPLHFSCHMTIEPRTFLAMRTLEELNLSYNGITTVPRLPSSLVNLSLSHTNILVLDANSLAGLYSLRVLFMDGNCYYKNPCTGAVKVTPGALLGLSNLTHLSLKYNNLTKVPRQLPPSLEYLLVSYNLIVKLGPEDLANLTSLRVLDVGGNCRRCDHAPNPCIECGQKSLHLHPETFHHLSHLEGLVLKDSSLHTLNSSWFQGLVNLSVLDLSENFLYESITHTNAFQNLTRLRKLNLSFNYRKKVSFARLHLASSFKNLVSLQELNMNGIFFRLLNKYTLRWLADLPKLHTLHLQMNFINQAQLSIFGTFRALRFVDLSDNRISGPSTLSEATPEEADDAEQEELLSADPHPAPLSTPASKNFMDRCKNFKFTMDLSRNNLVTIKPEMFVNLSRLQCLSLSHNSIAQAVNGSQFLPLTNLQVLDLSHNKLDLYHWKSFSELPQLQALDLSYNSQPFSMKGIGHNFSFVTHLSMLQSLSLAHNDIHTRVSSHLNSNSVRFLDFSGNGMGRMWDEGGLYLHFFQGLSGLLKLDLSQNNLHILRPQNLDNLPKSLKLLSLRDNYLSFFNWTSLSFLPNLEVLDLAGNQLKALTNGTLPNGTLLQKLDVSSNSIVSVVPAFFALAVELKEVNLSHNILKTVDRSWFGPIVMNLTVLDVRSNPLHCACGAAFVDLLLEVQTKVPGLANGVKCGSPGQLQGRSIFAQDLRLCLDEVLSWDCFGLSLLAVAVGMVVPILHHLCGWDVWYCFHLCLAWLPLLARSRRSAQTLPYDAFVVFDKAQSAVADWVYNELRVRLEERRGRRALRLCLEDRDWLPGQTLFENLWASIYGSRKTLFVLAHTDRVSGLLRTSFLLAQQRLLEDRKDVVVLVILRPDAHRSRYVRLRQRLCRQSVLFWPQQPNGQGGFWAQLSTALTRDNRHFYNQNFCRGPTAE
Format: cell-based
Experimental: In order to determine the inhibitory activities of the test-ligand, RAW 264.7 cells were pretreated with each candidate compound for 1 hour, then treated with Pam3CSK4 (synthetic triacyl lipopeptide; TLR1/2, Invitrogen), FSL-1 (synthetic diacyl lipoprotein, TLR2/6, 100 ng/ml), lipopolysaccharide (LPS, TLR4, Sigma Aldrich), imiquimod (IMQ, TLR7, Invitrogen), and ODN2395 (type C CpG repeat motif DNA oligo(5′-[…]-3), TLR9, Bioneer) ligand for 4 hours, and treated with poly I:C (I:C repeat motif double-stranded RNA, TLR3, Invitrogen) and TL8-506 (TLR8, Invitrogen) showing delayed reactivity for 24 hours. After activation of TLR, the supernatant was diluted in an appropriate ratio so as to measure within the standard dose range, transferred to a pre-coated 96-well assay plate, and then treated with mouse TNF-alpha secretion level in accordance with the manufacturer's instructions using a mouse-TNF-alpha ELISA-kit (Invitrogen).
In order to plot the concentration-dependent LC50 curves, treatment with the SK series ligands at different concentrations up to 200 μM (the highest concentration that could be treated within the level of 0.5% DMSO) was performed. Then, cell viability and toxicity response upon treatment with ligands were analyzed by MTT as described in Examples 1-3. Cell viability in each plot was normalized from negative control (100%; no treatment) to positive control (highest concentration of test-ligand), and LC50 was determined by non-linear regression (Graph Pad Prism 7.0). In order to plot the concentration-dependent IC50 curves, pre-treatment with the SK series ligands was performed at different concentrations up to 50 μM (twice the initial concentration). Cell responses mediated by TLR7 and TLR9 (levels of TNF-α secretion) were analyzed by ELISA as described in Examples 1-4. The cytokine level in each plot was normalized from negative control (non-treated) to positive control (treatment with ligand), and IC50 was determined by non-linear regression (Graph Pad Prism 7.0).
In order to select potential inhibitory molecules against TLR3/TLR7/TLR8/TLR9 activation, first, MTT (3-(4,5-dimethylthiazol-2-yl)-2,5-diphenyltetrazolium bromide) cell viability assay (FIG. 7) was performed upon treatment with a set of ligands from SK21 to SK82 at a concentration of 20 μM and the inhibitory activity thereof was evaluated by an ELISA assay to monitor the level of TNF-α secretion in RAW 264.7 cells. The experimental ligands from SK21 to SK82 were administered at 0.5 μM or 2 μM to the RAW 264.7 cells and stimulated with Imiquimod (TLR7, 1 μg/ml) and OND2395 (TLR9, 0.5 μM).

SMILES	inhibitory activity against TLR9 activation (TNF-α secretion)
Cc1c(C)n(CCN(C)C)c2nc3c(c(N)c12)CCCCC3 [SK01, 1-(2-(dimethylamino)ethyl)-2,3-dimethyl-1,5,6,7,8,9-hexahydrocyclohepta[b]pyrrolo[3,2-e]pyridin-4-amine]	inhibitory ability for TLR7/TLR9 activation was verified; also recorded: specifically inhibit
Cc1c(C)n(CCCN(C)C)c2nc3c(c(N)c12)CCCCC3 [SK16, 1-(3-(dimethylamino)propyl)-2,3-dimethyl-1,5,6,7,8,9-hexahydrocyclohepta[b]pyrrolo[3,2-e]pyridin-4-amine]	potent inhibitor; also recorded: best inhibitory activity among the structural analogues of SK01; also recorded: specifically inhibit

Same assay, conditions: SK21 to SK82 at 0.5 μM or 2 μM, ODN2395 0.5 μM

SMILES	inhibitory activity against TLR9 (level of TNF-α secretion)
Cc1cc2c(N)c3c(nc2n1CCCN(C)C)CCCCCC3 [SK41, 1-(3-(dimethylamino)propyl)-2-methyl-5,6,7,8,9,10-hexahydro-1H-cycloocta[b]pyrrolo[3,2-e]pyridin-4-amine]	significant inhibitory activity; also recorded: significantly reduced
COc1ccc2c(c1)c1c(N)c3c(nc1n2CCCN(C)C)CCCC3 [SK50, 6-(3-(dimethylamino)propyl)-9-methoxy-2,3,4,6-tetrahydro-1H-indolo[2,3-b]quinolin-11-amine]	significant inhibitory activity; also recorded: significantly reduced
Cc1ccc2c(c1)c1c(N)c3c(nc1n2CCCN(C)C)CCCC3 [SK58, 6-(3-(dimethylamino)propyl)-9-methyl-2,3,4,6-tetrahydro-1H-indolo[2,3-b]quinolin-11-amine]	significant inhibitory activity; also recorded: significantly reduced
COC(=O)c1ccc2c(c1)c1c(N)c3c(nc1n2CCCN(C)C)CCCC3 [SK64, Methyl 11-amino-6-(3-(dimethylamino)propyl)-2,3,4,6-tetrahydro-1H-indolo[2,3-b]quinolin-9-carboxylate]	significant inhibitory activity; also recorded: significantly reduced
